In patent US6500610B1, “Methods for identifying compounds for inhibiting of neoplastic lesions, and pharmaceutical compositions containing such compounds” (Cell Pathways, INC, priority 1997, dated 2002):
Where two headings read alike, the source gives them in different places. One block for each compound: values may come before it.

Experiments:
[1] = target: T1, cyclooxygenase (Type 1), COX-I (Ovis aries, UniProt P05979); assay: COX inhibition assay, purified cyclooxygenase; conditions: for COX-I inhibition: FIG. 5
T1 sequence (P05979 25-600): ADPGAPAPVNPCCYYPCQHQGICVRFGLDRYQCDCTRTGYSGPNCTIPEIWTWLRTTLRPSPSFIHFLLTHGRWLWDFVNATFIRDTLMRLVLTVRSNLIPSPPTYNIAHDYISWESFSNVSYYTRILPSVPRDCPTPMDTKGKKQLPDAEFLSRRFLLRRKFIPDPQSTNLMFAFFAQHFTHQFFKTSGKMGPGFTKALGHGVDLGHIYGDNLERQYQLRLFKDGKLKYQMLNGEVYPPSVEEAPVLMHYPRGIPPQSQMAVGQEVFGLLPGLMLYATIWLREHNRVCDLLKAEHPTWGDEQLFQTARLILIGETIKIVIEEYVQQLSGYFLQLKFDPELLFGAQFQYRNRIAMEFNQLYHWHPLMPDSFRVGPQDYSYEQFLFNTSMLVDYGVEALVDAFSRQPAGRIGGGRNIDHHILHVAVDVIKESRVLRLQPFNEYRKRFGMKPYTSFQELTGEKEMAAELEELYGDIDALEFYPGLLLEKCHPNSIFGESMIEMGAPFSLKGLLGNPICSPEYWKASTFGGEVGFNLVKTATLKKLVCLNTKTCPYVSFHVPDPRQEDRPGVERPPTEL

[2] = target: T2, Peak A (PDE5) from SW480 cells (Homo sapiens, UniProt O76074); assay: cGMP hydrolysis inhibition, PDE peak A from SW480; format: biochemical
T2 construct: To isolate the novel phosphodiesterase from SW480, approximately four hundred million SW480 cells were grown to confluence; endogenous in cells; host or cells: SW480 colon cancer cells; DEAE-Trisacryl M fraction (peak A)

[3] = target: T3, cGMP binding sites of the GST-cGB-PDE5 Protein (Homo sapiens, UniProt O76074); assay: cGMP binding assay with GST-cGB-PDE5 fusion protein; conditions: 3H-cGMP 2 μM
T3 construct: made in house; host or cells: E. coli BL21 (DE3)

[4] = system: cGMP PDE from human colon HT-29 cultured tumor cells; assay: cGMP PDE inhibition assay; format: biochemical
[5] = target: T4, novel cGMP-specific PDE (Peak B) from SW480 cells (Homo sapiens, UniProt O00408); assay: cGMP hydrolysis inhibition, novel PDE peak B (Section IA) from SW480; format: biochemical
T4 construct: IC50 Peak B (μM)
T4 sequence (O00408 2-941): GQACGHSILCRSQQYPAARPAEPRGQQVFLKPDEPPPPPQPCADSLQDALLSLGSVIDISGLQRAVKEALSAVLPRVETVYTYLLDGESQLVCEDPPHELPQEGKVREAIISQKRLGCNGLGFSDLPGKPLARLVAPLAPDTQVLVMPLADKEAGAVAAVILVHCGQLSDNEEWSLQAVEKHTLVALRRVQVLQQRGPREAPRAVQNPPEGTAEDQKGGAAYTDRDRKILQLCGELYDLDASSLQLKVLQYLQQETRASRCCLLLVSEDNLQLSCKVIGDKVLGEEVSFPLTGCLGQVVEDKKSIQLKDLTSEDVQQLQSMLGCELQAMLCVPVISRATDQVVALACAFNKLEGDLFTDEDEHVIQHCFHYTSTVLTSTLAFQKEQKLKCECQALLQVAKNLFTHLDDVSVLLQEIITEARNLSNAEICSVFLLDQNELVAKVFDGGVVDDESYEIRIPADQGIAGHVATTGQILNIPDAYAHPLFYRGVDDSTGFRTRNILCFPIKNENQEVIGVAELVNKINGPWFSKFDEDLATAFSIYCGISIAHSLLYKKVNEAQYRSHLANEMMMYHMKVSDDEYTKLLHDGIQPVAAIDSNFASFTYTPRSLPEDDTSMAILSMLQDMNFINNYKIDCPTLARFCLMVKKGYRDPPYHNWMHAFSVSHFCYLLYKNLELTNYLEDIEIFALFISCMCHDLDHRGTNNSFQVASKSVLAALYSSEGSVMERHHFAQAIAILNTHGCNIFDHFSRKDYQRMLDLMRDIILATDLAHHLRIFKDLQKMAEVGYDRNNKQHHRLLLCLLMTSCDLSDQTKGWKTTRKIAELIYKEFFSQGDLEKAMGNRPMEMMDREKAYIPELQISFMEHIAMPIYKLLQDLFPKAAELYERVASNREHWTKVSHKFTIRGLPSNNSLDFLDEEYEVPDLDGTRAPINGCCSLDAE

HT-29 cells [6] = assay: Growth inhibition, SRB assay, HT-29; format: cell-based, human
[7] = system: premalignant lesions in mouse mammary gland organ culture; assay: Mammary gland organ culture model; format: cell-based
Excerpt: Test compounds identified by the above methods can be tested for antineoplastic activity by their ability to inhibit the incidence of pre-neoplastic lesions in a mammary gland organ culture system. This mouse mammary gland organ culture technique has been successfully used by other investigators to study the effects of known antineoplastic agents such as certain NSAIDs, retinoids, tamoxifen, selenium, and certain natural products, and is useful for validation of the screening method of the present invention.
For example, female BALB/c mice can be treated with a combination of estradiol and progesterone daily, in order to prime the glands to be responsive to hormones in vitro. The animals are sacrificed, and thoracic mammary glands are excised aseptically and incubated for ten days in growth media supplemented with insulin, prolactin, hydrocortisone, and aldosterone. DMBA (7,12 dimethylbenz(a)anthracene) is added to medium to induce the formation of premalignant lesions. Fully developed glands are then deprived of prolactin, hydrocortisone, and aldosterone, resulting in the regression of the glands but not the pre-malignant lesions.
The test compound is dissolved in DMSO and added to the culture media for the duration of the culture period. At the end of the culture period, the glands are fixed in 10% formalin, stained with alum carmine, and mounted on glass slides. The incidence of forming mammary lesions is the ratio of the glands with mammary lesions to […]. The incidence of mammary lesions in test compound treated glands is compared with that of the untreated glands.
The extent of the area occupied by the mammary lesions can be quantitated by projecting an image of the gland onto a digitation pad. The area covered by the gland is traced on the pad and considered as 100% of the area. The space covered by each of the non-regressed structures is also outlined on the digitization pad and quantitated by the computer.
Mammary gland organ culture experiment were performed as previously described (Mehta and Moon, Cancer Research, 46:5832-5835, 1986). […]

HT-29 cells [8] = assay: cGMP and cAMP levels in HT-29 cells by radioimmunoassay; format: cell-based, human; conditions: HT-29 cells treated 30 minutes

COX % Inhibition at 100 μM [1]: 94%
SMILES: Clc1cccc(Nc2nnc(-c3ccccc3)c3ccccc23)c1 [MY5445, 1-(3-chloroanilino)-4-phenyphthalazine, reference compound]

SMILES: CCCc1nn(C)c2c(=O)[nH]c(-c3cc(S(=O)(=O)N4CCN(C)CC4)ccc3OCC)nc12 [Sildenafil, reference compound]
inhibition of activity of peak A [2]: inhibited activity of peak A

SMILES: COc1cc(/C=C2/C(C)=C(CC(=O)NCc3ccccc3)c3cc(F)ccc32)cc(OC)c1OC [Compound E, (Z)-5-Fluoro-2-methyl-1-(3,4,5-trimethoxybenzylidene)-3-indenylacetamide, N-benzyl]
competition with cGMP in binding of GST-cGB-PDE5 [3]: None of the PDE5 inhibitors showed any competition with cGMP | competitive (with cGMP) binding to PDE 5 (peak A) [2]: does competitively (with cGMP) bind to PDE 5 | COX-I inhibition [1]: neither test compound B and E significantly inhibit COX-I | cGMP PDE % Inhibition at 10 μM ([4]; 10 µM): 75% | competitive (with cGMP) binding to PDE peak B [5]: competitively (with cGMP) binds to PDE peak B

SMILES: CCCOc1ccccc1-c1nc2nn[nH]c2c(=O)[nH]1 [Zaprinast]
competition with cGMP in binding of GST-cGB-PDE5 [3]: None of the PDE5 inhibitors showed any competition with cGMP

SMILES: COc1cc(C=C2C(C)=C(CC(=O)O)c3cc(F)ccc32)cc(OC)c1OC [Compound B, (Z)-5-Fluoro-2-methyl-1-(3,4,5-trimethoxybenzylidene)-3-acetic acid]
competition with cGMP in binding of GST-cGB-PDE5 [3]: None of the PDE5 inhibitors showed any competition with cGMP | COX-I inhibition [1]: neither test compound B and E significantly inhibit COX-I | cGMP PDE % Inhibition at 10 μM [4]: <25%

COX % Inhibition at 100 μM [1]: <25%
SMILES: CC(=O)NC(CSC12CC(=O)OC1(C)/C(=C/c1ccc(S(C)(=O)=O)cc1)c1ccc(F)cc12)C(=O)O (racemic) [D, rac-(E)-1-(butan-1′,4′-olido)-[3′,4′:1,2]-6-fluoro-2-methyl-3-(p-methylsulfonylbenzylidene)-1S-indanyl-N-acetylcysteine]
Growth % Inhibition at 100 μM (HT-29 cells [6]): 78%

SMILES: CC1=C(CC(=O)O)c2cc(F)ccc2/C1=C\c1ccc(Cl)cc1 [Compound C, (Z)-5-Fluoro-2-methyl-1-(p-chlorobenzylidene)-3-acetic acid]
Growth % Inhibition at 100 μM (HT-29 cells [6]): 80% | cGMP PDE % Inhibition at 10 μM [4]: <25%

SMILES: CC1=C(CC(=O)O)c2cc(F)ccc2/C1=C\c1ccc([S+](C)[O-])cc1 (centres unmarked) [sulindac]
inhibition of formation of premalignant lesions [7]: effectively inhibit the formation of premalignant lesions

SMILES: COc1ccc(C2CNC(=O)C2)cc1OC1CCCC1 (centres unmarked) [Rolipram]
levels of cAMP (HT-29 cells [8]): increased cAMP
